Tests used:
M1 muscarinic receptor = target: T1, M1 muscarinic receptor (Homo sapiens, UniProt P11229); experiment: Functional mobilization of intracellular calcium (FLIPR) in M1-CHO cells; assay type: cell-based; conditions: Table 4; for Emax: 100% efficacy is the maximum response obtained with the Carbachol control; for M1 Activity: M1 receptor, calcium mobilization (FLIPR)
T1 construct: expressed in transfected cells; host or cells: CHO (M1-CHO)
T1 sequence (P11229 1-460): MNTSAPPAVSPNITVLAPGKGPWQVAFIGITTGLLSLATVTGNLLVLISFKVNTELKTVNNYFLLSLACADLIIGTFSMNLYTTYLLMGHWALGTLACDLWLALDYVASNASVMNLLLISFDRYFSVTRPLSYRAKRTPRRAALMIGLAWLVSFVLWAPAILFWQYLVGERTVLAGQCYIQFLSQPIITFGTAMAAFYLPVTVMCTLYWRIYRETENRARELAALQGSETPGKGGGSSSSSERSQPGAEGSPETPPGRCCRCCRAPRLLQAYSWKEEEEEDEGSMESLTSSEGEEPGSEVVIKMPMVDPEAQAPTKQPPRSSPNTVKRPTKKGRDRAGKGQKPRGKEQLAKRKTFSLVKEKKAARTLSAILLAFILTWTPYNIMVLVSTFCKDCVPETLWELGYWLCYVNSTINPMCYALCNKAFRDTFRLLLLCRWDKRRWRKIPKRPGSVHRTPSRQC
Summary of the method: (§1)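 CHO cells stably expressing human M1 or M4 receptor were loaded with Fluo-3 AM (or Calcium 3 dye) in Hepes-buffered saline, pH 7.4, with 1 mM probenecid, 0.5% final DMSO. Agonist mode: compound added directly; antagonist mode: 15 min preincubation before carbachol at EC80. FLIPR fluorescence recorded 60 sec.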

M4 muscarinic receptor = target: T2, M4 muscarinic receptor (Homo sapiens, UniProt P08173); experiment: Functional mobilization of intracellular calcium (FLIPR) in M4-CHO cells; assay type: cell-based; conditions: Table 4; for Emax: 100% efficacy is the maximum response obtained with the Carbachol control; for M4 Activity: M4 receptor, calcium mobilization (FLIPR)
T2 construct: expressed in transfected cells; host or cells: CHO (M4-CHO)
T2 sequence (P08173 1-479): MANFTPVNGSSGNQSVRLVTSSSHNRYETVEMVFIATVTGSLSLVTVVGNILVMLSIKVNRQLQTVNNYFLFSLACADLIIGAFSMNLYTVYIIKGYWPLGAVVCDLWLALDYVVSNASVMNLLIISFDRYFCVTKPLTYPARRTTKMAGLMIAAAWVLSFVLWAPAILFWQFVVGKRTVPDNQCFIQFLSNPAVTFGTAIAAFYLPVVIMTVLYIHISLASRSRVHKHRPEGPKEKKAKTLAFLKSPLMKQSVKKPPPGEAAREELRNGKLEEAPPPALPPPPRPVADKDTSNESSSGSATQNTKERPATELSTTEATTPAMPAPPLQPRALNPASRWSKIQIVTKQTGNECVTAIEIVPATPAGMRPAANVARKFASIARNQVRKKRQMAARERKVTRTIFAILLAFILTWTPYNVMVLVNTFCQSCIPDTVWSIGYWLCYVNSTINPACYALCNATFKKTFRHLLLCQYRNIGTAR
Summary of the method: as §1

Structure (SMILES) | Emax (M1 muscarinic receptor) [%] | M1 Activity (M1 muscarinic receptor) | Emax (M4 muscarinic receptor) [%] | M4 Activity (M4 muscarinic receptor)
CC(CF)OC(=O)N1CCC(N2CCC3(CC2)CN(C(=O)N(C)C)c2ccc(F)cc23)CC1 (stereo not drawn) [compound 987] | 25 to 100 | xxx (activity was measured to be less than 2.0 μM) | 25 to 100 | xxx (activity was measured to be less than 2.0 μM)
CN(C)C(=O)N1CC2(CCN(C3CCN(C(=O)c4ccnnc4)CC3)CC2)c2cc(F)ccc21 [compound 988] | 25 to 100 | xxx (activity was measured to be less than 2.0 μM) | 25 to 100 | xxx (activity was measured to be less than 2.0 μM)
C#CCCOC(=O)N1CCC(N2CCC3(CC2)CN(C(C)=O)c2ccccc23)CC1 [compound 989] | 25 to 100 | xxx (activity was measured to be less than 2.0 μM) | < 25 | x (activity was measured to be greater than 5.0 μM)
COc1ccc(N2CCC(N3CCC4(CC3)CN(C(=O)N(C)C)c3ccc(F)cc34)CC2)cc1 [compound 990] | 25 to 100 | xx (activity was measured to be between 2.0 μM and 5.0 μM) | 25 to 100 | x (activity was measured to be greater than 5.0 μM)
CCOC(=O)N1CCC(N2CCC3(CC2)CN(c2ccccc2F)c2ccc(F)cc23)CC1 [compound 991] | 25 to 100 | xxx (activity was measured to be less than 2.0 μM) | 25 to 100 | xxx (activity was measured to be less than 2.0 μM)
CCOC(=O)N1CCC(N2CCC3(CC2)CN(C(C)=O)c2c(-c4ccc(F)cc4)cccc23)CC1 [compound 992] | 25 to 100 | x (activity was measured to be greater than 5.0 μM) | 25 to 100 | x (activity was measured to be greater than 5.0 μM)
CC(=O)N[C@H]1CCC2(CCN(CC3CCCC3)CC2)c2ccccc21 [compound 993] | 25 to 100 | xxx (activity was measured to be less than 2.0 μM) | 25 to 100 | xxx (activity was measured to be less than 2.0 μM)
CCOC(=O)N1CCC(CN2CCC3(CC2)CN(C(C)=O)c2ccc(C(F)(F)F)cc23)CC1 [compound 994] | 25 to 100 | xxx (activity was measured to be less than 2.0 μM) | 25 to 100 | xxx (activity was measured to be less than 2.0 μM)
CCOC(=O)N1CCC(N2CCC3(CC2)CN(C(C)=O)c2c(Br)cccc23)CC1 [compound 995] | 25 to 100 | x (activity was measured to be greater than 5.0 μM) | 25 to 100 | xx (activity was measured to be between 2.0 μM and 5.0 μM)
CC(=O)N1CC2(CCN(C[C@@H]3CCN(C(=O)OC(C)C)C3)CC2)c2ccccc21 [compound 996] | < 25 | x (activity was measured to be greater than 5.0 μM) | < 25 | x (activity was measured to be greater than 5.0 μM)
CN(C)C(=O)NC1CCC2(CCN(CC3CC4C=CC3C4)CC2)c2ccccc21 (stereo not drawn) [compound 998] | < 25 | x (activity was measured to be greater than 5.0 μM) | 25 to 100 | xxx (activity was measured to be less than 2.0 μM)
CC(=O)NC1CCC2(CCN(CCC3CCN(C(=O)N(C)C)CC3)CC2)c2ccccc21 (stereo not drawn) [compound 999] | 25 to 100 | xxx (activity was measured to be less than 2.0 μM) | < 25 | x (activity was measured to be greater than 5.0 μM)
CCC(C)C(=O)N1CCC(N2CCC3(CC2)CN(C(C)=O)c2ccccc23)CC1 (stereo not drawn) [compound 1000] | 25 to 100 | x (activity was measured to be greater than 5.0 μM) | 25 to 100 | x (activity was measured to be greater than 5.0 μM)
COc1cc2c(cc1OC)C1(CCN([C@H]3CC4CC[C@@H]3C4)CC1)C[C@@H]2NC(C)=O [compound 1002] | < 25 | x (activity was measured to be greater than 5.0 μM) | < 25 | x (activity was measured to be greater than 5.0 μM)
CCOC(=O)N1CCC(CN2CCCC3(CC2)CN(C(C)=O)c2ccc(F)cc23)CC1 (stereo not drawn) [compound 1003] | 25 to 100 | xxx (activity was measured to be less than 2.0 μM) | 25 to 100 | xxx (activity was measured to be less than 2.0 μM)
CCOC(=O)N1CCC(N2CCC3(CC2)CN(C(=O)[C@@H](O)CC)c2ccc(F)cc23)CC1 [compound 1004] | 25 to 100 | xxx (activity was measured to be less than 2.0 μM) | 25 to 100 | xxx (activity was measured to be less than 2.0 μM)
CN(C)C(=O)N[C@H]1CC2(CCN([C@@H]3CC4CC[C@@H]3C4)CC2)c2ccccc21 [compound 1005] | < 25 | x (activity was measured to be greater than 5.0 μM) | 25 to 100 | xxx (activity was measured to be less than 2.0 μM)
CN(C)C(=O)N1CC2(CCN(C3CCN(C(=O)[C@@H]4CCCO4)CC3)CC2)c2cc(F)ccc21 [compound 1006] | 25 to 100 | x (activity was measured to be greater than 5.0 μM) | < 25 | x (activity was measured to be greater than 5.0 μM)
CC(=O)CN1CC2(CCN(C3CCCCCC3)CC2)c2cc(F)ccc21 [compound 1009] | 25 to 100 | xxx (activity was measured to be less than 2.0 μM) | 25 to 100 | xxx (activity was measured to be less than 2.0 μM)
CN(C)C(=O)NC1CCC2(CCN(CCC3CC4CCC3C4)CC2)c2ccccc21 (stereo not drawn) [compound 1010] | < 25 | x (activity was measured to be greater than 5.0 μM) | < 25 | x (activity was measured to be greater than 5.0 μM)
COCCOC(=O)N1CCC(N2CCC3(CC2)CN(C(C)=O)c2ccc(F)cc23)C1 (stereo not drawn) [compound 1012] | < 25 | x (activity was measured to be greater than 5.0 μM) | < 25 | x (activity was measured to be greater than 5.0 μM)
C#CCCOC(=O)N1CC[C@@H](CN2CCC3(CC2)CN(C(C)=O)c2ccccc23)C1 [compound 1013] | < 25 | x (activity was measured to be greater than 5.0 μM) | < 25 | x (activity was measured to be greater than 5.0 μM)
CCOC(=O)N1C2CCC1CC(N1CCC3(CC[C@H](N4CCCC4=O)c4ccccc43)CC1)C2 (stereo partly drawn) [compound 1014] | 25 to 100 | xxx (activity was measured to be less than 2.0 μM) | 25 to 100 | xxx (activity was measured to be less than 2.0 μM)
CC(=O)N1CC2(CCN(C[C@@H]3CCN(C(=O)OCC(F)F)C3)CC2)c2ccccc21 [compound 1015] | 25 to 100 | xx (activity was measured to be between 2.0 μM and 5.0 μM) | < 25 | xxx (activity was measured to be less than 2.0 μM)

From patent US7786141B2 (Vertex Pharmaceuticals Incorporated, priority 2004, dated 2010)
